US4978666A, “Optically active piperazine derivative” (Nippon Chemiphar Co., Ltd., priority 1988, dated 1990)
Counter-ions that a name gives are not always drawn.

What was measured:
Format in all cases: in vivo
[1] = test system: vertebral blood flow; assay: Peripheral vasodilating effect (vertebral blood flow increase in anesthetized dogs); details: i.v., anesthetized mongrel dogs
Description: (§1) The peripheral vasodilating effect (action for increase of blood flow of vertebrae) and acute toxicity of (-)-1-(3,4-dimethoxyphenyl)-2-(4-diphenylmethylpiperazinyl)ethanol dihydrochloride according to the invention, (+)-1-(3,4-dimethoxyphenyl)-2-(4-diphenylmethylpiperazinyl)ethanol dihydrochloride, and (±)-1-(3,4-dimethoxyphenyl)-2-(4-diphenylmethylpiperazinyl)ethanol dihydrochloride are illustrated by the following examples.
Mongrel Dogs of both sexes each weighing about 10 kg were anesthetized with sodium pentobarbital (35 mg/kg, i.v.). Artificial respiration was performed with room air. The vertebral blood flow and femoral blood flow were measured by an electromagnetic flowmeter (avilable from Nihon Koden, MF-27 and MFV-1100) with flow probes. The blood pressure and heart rate were measured at the same time. […]

[2] = test system: SD-strain female rats; assay: Acute toxicity (oral LD50 in rats); details: SD-strain female rats 150 to 200 g, observed for 2 weeks, 20160 min, dihydrochloride
Description: as §1
(§2) Each of the (-)-, (+)- and (±)-piperazine derivatives were orally administered to SD-strain female rats each having a body weight of 150 to 200 g.

[3] = Acute toxicity (oral LD50 in rats); details: rat, in vivo, po, SD-strain female rats 150 to 200 g, observed for 2 weeks
Description: as §1, §2

[4] = Concentration in blood after administration to beagle dogs; details: as compared with administration of the (+)-derivative

Compound	Percentage of vertebral blood flow increase ([1]; 0.03 mg/kg, dihydrochloride) [%]	Percentage of vertebral blood flow increase ([1]; 0.1 mg/kg, dihydrochloride) [%]	LD50 [2] [mg/kg]	Percentage of vertebral blood flow increase ([1]; 0.03 mg/kg) [%]	Percentage of vertebral blood flow increase ([1]; 0.1 mg/kg) [%]	LD50 at 336 h [3] [mg/kg]	concentration in blood (determined from an area of a measured blood concentration curve) [4]
COc1ccc(C(O)CN2CCN(C(c3ccccc3)c3ccccc3)CC2)cc1OC (single isomer, unassigned; (+)) [(+)-Derivative, (+)-1-(3,4-dimethoxyphenyl)-2-(4-diphenylmethylpiperazinyl)ethanol dihydrochloride]	13.4	34.3	14.3				
COc1ccc(C(O)CN2CCN(C(c3ccccc3)c3ccccc3)CC2)cc1OC (racemic) [(±)-Derivative, (±)-1-(3,4-dimethoxyphenyl)-2-(4-diphenylmethylpiperazinyl)ethanol dihydrochloride]				16.9	43.9	29.1	
COc1ccc(C(O)CN2CCN(C(c3ccccc3)c3ccccc3)CC2)cc1OC (single isomer, unassigned; (-)) [(-)-Derivative, (-)-1-(3,4-dimethoxyphenyl)-2-(4-diphenylmethylpiperazinyl)ethanol dihydrochloride]	22.9	48.0	45.4				high concentration in blood
